Measured values as given in paper PMC7222207, “Characterization of a CholesteroNitrone (ISQ-201), a Novel Drug Candidate for the Treatment of Ischemic Stroke” (Antioxidants, 2020).
Read-outs that look alike come from different tables or passages of the source.

Key:
[1] = Pharmacokinetics study, plasma concentration after intravenous bolus (LC-MS/MS); format: in vivo, male Wistar rats; conditions: rat; for clearance / Vd / k el / half-life / Cmax / AUC(0-t) / C0: male, Wistar; for clearance / Vd / k el / half-life / Cmax / AUC(0-t) / C0 / Clast: plasma; for clearance / Vd / k el / Cmax / AUC(0-t) / C0 / Clast: mean ± SE n=6; for clearance: read-out: Cl (terminal clearance) (converted); for Vd: read-out: Vd (volume of distribution); for k el: read-out: kel (terminal elimination constant) (converted); for half-life: iv; for AUC(0-t): read-out: AUC0–8h; for C0: read-out: C0 (initial concentration)
Procedure: For the study of the variation of the concentration of ISQ-201 in plasma, male Wistar rats (10–12 weeks, Charles River) were randomly divided into three groups (n = 6 per group) and treated intravenously, as a bolus with different concentrations of ISQ-201 (0.07, 0.25, and 1.0 mg/kg, respectively). Plasma samples were taken 0.25, 0.5, 1, 2, 4, and 8 h after the administration and the ISQ-201 concentration was determined by LC–MS/MS analysis. A noncompartmental analysis was performed for the determination of the toxicokinetic parameters, using the Phoenix 64 WinNonlin program (version 8.0). This study was carried out by Swiss BioQuant AG (Reinach, Switzerland).
Study of the variation of ISQ-201 concentration after a single bolus intravenous administration was carried out with different doses of ISQ-201 (0.07, 0.25, and 1.00 mg/kg). Plasma samples were collected 0.25, 0.5, 1, 2, 4, and 8 h after administration, and the ISQ-201 concentration was determined through LC/MS–MS (Figure 7). Pharmacokinetic parameters were calculated through a non-compartmental analysis (Table 2).

[2] = test system: transient forebrain ischemia, hippocampal CA1 and cortical neurons; assay: Global cerebral ischemia (4VO), neuronal death by Fluoro-Jade B staining; format: in vivo, male Wistar rats; conditions: for maximum neuroprotection (Emax), neuronal death assay: iv at reperfusion onset
Procedure: (§1) Transient forebrain ischemia was induced in adult male Wistar rats (10–12 weeks, Charles River) by the standard four-vessel occlusion model (4VO) described previously. Briefly, both vertebral arteries were irreversibly occluded by electrocoagulation under anesthesia, with a mixture of atropine, ketamine, and diazepam (0.25, 62.5, and 5 mg/kg, respectively) delivered through intraperitoneal injection. After 24 h, ischemia was induced by carotid occlusion with atraumatic clips, for 15 min, and then the clips were removed from the carotid arteries to allow reperfusion. Body temperature was maintained at 37 °C during the surgical procedure. The animals were studied after 5 days of reperfusion (R5d) after which they were sacrificed. Sham control animals were prepared in the same way, without carotid occlusion. We performed a power analysis (http://www.biomath.info/power/ttest.htm) to determine the sample size. Significance level and statistical power were set at 0.05 and 0.8 (80%), respectively, which afforded a sample size of […] subjects per group. The treatments were administered with concealed allocation, and in randomized order, according to a computer-generated randomization program. Ischemic animals were treated with a vehicle solution (saline/ethanol, 90:10 vol/vol) or nitrone ISQ-201, dissolved in a vehicle solution through a single intravenous tail injection, when the carotid arteries were unclamped for reperfusion. In therapeutic window experiments, the animals were treated once at the reperfusion onset or at the set reperfusion time points, after ischemia. For the administration, at 6 h and 48 h of reperfusion after ischemia, the animals were anesthetized with isoflurane for 2–3 min and 5 min, respectively, prior to the treatment administration. An independent researcher prepared the treatments for each animal, according to the randomization schedule. Data of each experimental group were normalized to each vehicle control group. All procedures associated with animal experiments were approved by the Animal Care Ethics Committee of the Hospital Universitario Ramón y Cajal (Madrid, Spain, code no. 06/2015) and were performed according to the ARRIVE guidelines.
After 5 days of reperfusion (R5d), the animals were euthanized by transcardiac perfusion, under deep anesthesia. […]
Brain cryosections (10 µm thick) from ischemic animals reperfused for 5 days were used after fixation to detect neuronal death by Fluoro-Jade B staining, and visualized by fluorescence microscopy. Labeled (dead) neuronal cells (in green) were counted, as in TUNEL assay (see below). Data from different animals of each experimental group were independently analyzed by two observers, and treatment information was kept concealed throughout the study.

[3] = test system: lipid peroxidation and ROS levels; parameters: method as in PMID 26241908; conditions: preliminary results; cited from earlier work
[4] = test system: transient forebrain ischemia, hippocampal CA1 and cortical neurons; assay: Global cerebral ischemia (4VO), neuronal apoptosis by TUNEL assay; format: in vivo, male Wistar rats; parameters: maximum neuroprotection (Emax), TUNEL assay: dose or concentration left out as unconfirmed; conditions: for maximum neuroprotection (Emax), TUNEL assay: iv at reperfusion onset
Procedure: as §1
After 5 days of reperfusion (R5d), the animals were euthanized by transcardiac perfusion, under deep anesthesia. A washout step with 200 mL of saline via the left ventricle was followed by a fixation with 4% (w/v) paraformaldehyde solution in PBS. Brains were then removed and post-fixed in the same solution, overnight at 4 °C, sequentially washed with 10%, 20%, and 30% (w/v) sucrose in PBS, and embedded in Tissue-Tek O.C.T. (Sakura Finetek), before freezing at −80 °C. Brain coronal sections containing the hippocampus were obtained by cryostat sectioning at the level of interaural line +5.7 ± 0.2 mm on real capillary gap microscope slides (Dako).
Apoptotic neurons within the brain sections were detected by using the Terminal deoxynucleotidyl transferase-mediated dUTP Nick-End Labeling (TUNEL) assay (Promega). For this test, 5-µm-thick coronal cryostat brain sections containing the dorsal hippocampal formation were obtained, as described above, and post-fixed with 4% formaldehyde in PBS for 5 min, at room temperature. After washing in PBS for three times, the sections were permeabilized with 0.1 M sodium citrate, pH 6.0, for 1 min at 95 °C, then quickly cooled in ice and washed in PBS for 5 min at room temperature. […]

[5] = hippocampal CA1, most potent concentration, 5 days of reperfusion

CC(C)[C@H]1CC[C@H]2[C@@H]3CCC4=C/C(=[N+](\C)[O-])CC[C@]4(C)[C@H]3CC[C@]12C [ISQ-201]
clearance ([1]; iv bolus 0.07 mg/kg): 1.75 mL/min
Vd ([1]; iv bolus 0.07 mg/kg): 0.364 ± 0.11 L
k el ([1]; iv bolus 0.07 mg/kg): 8.81e-05 s⁻¹
clearance ([1]; iv bolus 0.25 mg/kg): 0.923 mL/min
Vd ([1]; iv bolus 0.25 mg/kg): 0.166 ± 0.027 L
k el ([1]; iv bolus 0.25 mg/kg): 9.53e-05 s⁻¹
clearance ([1]; iv bolus 1.00 mg/kg): 0.895 mL/min
Vd ([1]; iv bolus 1.00 mg/kg): 0.3 ± 0.103 L
k el ([1]; iv bolus 1.00 mg/kg): 7.94e-05 s⁻¹
half-life ([1]; 0.07 mg/kg, iv bolus 0.07 mg/kg, mean ± SE n=6, read-out: t1/2 (half-life) (converted)): 1.66 ± 0.1 h
half-life ([1]; 0.25 mg/kg, iv bolus 0.25 mg/kg, mean ± SE n=6, read-out: t1/2 (half-life) (converted)): 1.51 ± 0.12 h
half-life ([1]; 1 mg/kg, iv bolus 1.00 mg/kg, mean ± SE n=6, read-out: t1/2 (half-life) (converted)): 2.2 ± 0.53 h
half-life ([1]; iv bolus, 0.07–1.00 mg/kg, read-out: half-life): 1.5 to 2 h
Cmax ([1]; iv bolus 0.07 mg/kg): 0.0506 ± 0.0074 µg/mL
AUC(0-t) ([1]; iv bolus 0.07 mg/kg): 0.0811 ± 0.0095 µg·h/mL
C0 ([1]; iv bolus 0.07 mg/kg): 0.0746 ± 0.0122 µg/mL
Cmax ([1]; iv bolus 0.25 mg/kg): 0.33 ± 0.0512 µg/mL
AUC(0-t) ([1]; iv bolus 0.25 mg/kg): 0.477 ± 0.042 µg·h/mL
C0 ([1]; iv bolus 0.25 mg/kg): 0.49 ± 0.0802 µg/mL
Cmax ([1]; iv bolus 1.00 mg/kg): 1.21 ± 0.299 µg/mL
AUC(0-t) ([1]; iv bolus 1.00 mg/kg): 2.03 ± 0.429 µg·h/mL
C0 ([1]; iv bolus 1.00 mg/kg): 1.69 ± 0.424 µg/mL
Clast ([1]; iv bolus 0.07 mg/kg): 0.00153 ± 9e-05 µg/mL
Clast ([1]; iv bolus 0.25 mg/kg): 0.00749 ± 0.00075 µg/mL
Clast ([1]; iv bolus 1.00 mg/kg): 0.04203 ± 0.00442 µg/mL
Cmax and AUC0-8h relation to dose ([1]; iv bolus, whole studied range 0.07–1.00 mg/kg): linearly related to the dose
neuronal death vs vehicle, therapeutic window ([2]; 0.05 mg/kg iv given between 0 and 6 h after reperfusion, CA1 and cortex, evaluated at 5 days): significantly decreased
dead neuron number vs vehicle group ([2]; 0.05 and 0.1 mg/kg iv at reperfusion onset, CA1 and cortex, 5 days of reperfusion): significant reduction
maximum neuroprotection (Emax), neuronal death assay ([2]; cortex, most potent concentration, 5 days of reperfusion, vs vehicle = 0%): 80%
maximum neuroprotection (Emax), neuronal death assay [2, 5]: 31%
effect on lipid peroxidation and ROS levels [3]: decreased
cell apoptosis vs vehicle, therapeutic window ([4]; 0.05 mg/kg iv given at 48 h postreperfusion, evaluated at 5 days): did not show significant differences
apoptosis-positive cells vs vehicle, therapeutic window ([4]; 0.05 mg/kg iv given up to and including 6 h postreperfusion, hippocampal and cortical regions, evaluated at 5 days): significantly reduced
apoptotic cells vs vehicle group ([4]; 0.05 and 0.1 mg/kg iv at reperfusion onset, CA1 and cortical regions, 5 days of reperfusion): significant reduction
maximum neuroprotection (Emax), TUNEL assay ([4]; cortex, most potent concentration, 5 days of reperfusion): 81%
maximum neuroprotection (Emax), TUNEL assay [4, 5]: 35%
